These results are taken from US6469142B1, “Human N-methyl-D-aspartate receptor subunits, nucleic acids encoding same and uses therefor” (Merck & Co., Inc., priority 1993, dated 2002).

The structures appear in SMILES notation.

In test [1] the test system is recombinant human NMDA receptors. In words: Antagonist block of agonist-induced currents in oocytes injected with NMDA receptor subunit transcripts (summary of Table 1). Type of test: cell-based. As to conditions: 0.1-1.0 mM MgCl2 or 1 μM MK801. As for the experimental part: (§1) Xenopus oocytes were injected with in vitro transcripts prepared from constructs containing DNA encoding human NMDA receptor NMDAR1 and NMDAR2 subunits. Electrophysiological measurements of the oocyte transmembrane currents were made using the two-electrode voltage clamp technique (see e.g., Stuhmer (1992) Meth. Enzymol. 207:319-339).
Xenopus oocytes were injected with 12.5-50 ng of one or more NMDA receptor subunit transcripts per oocyte. The preparation and injection of oocytes were carried out as described by Dascal [(1987) Crit. Rev. Biochem. 22:317-387]. Two-to-six days following mRNA injection, the oocytes were examined using the two-electrode voltage clamp technique. The cells were bathed in Ringer's solution (115 mM NaCl, 2.5 mM KCl, 1.8 mM CaCl2, 10 mM HEPES, pH 7.3), and the membrane potential was clamped at −80 to −100 mV. Drugs were applied by pipetting 6.0 μl aliquots of drug-containing solution directly into the bath, or by using gravity-feed into a Warner Instruments chamber (volume=110 μl) at a flow rate of 8 ml/min. The data were sampled at 2-5 Hz with a Labmaster data acquisition board in a PC-386 using AXOTAPE version 1.2 (Axon Instruments, Foster City, Calif.) software. The data were exported to a laser printer or plotted using Sigmaplot version 5.0. […]

In test [2] the target is T1, human NMDAR1A + NMDAR2A (Homo sapiens, UniProt Q05586+Q12879).
T1 construct: to generate the full-length construct NMDAR1A; Full-length DNAs encoding human NMDA receptor subunits have been inserted into vectors pcDNA1, pMMTVT7(+), pCMV-T7-2 and pCMV-T7-3; expressed in transfected cells; host or cells: Xenopus oocytes co-injected with in vitro transcripts
In words: Two-electrode voltage clamp of Xenopus oocytes co-injected with NMDAR1A and pCMV-hNMDAR2A-3(53) transcripts. Type of test: cell-based. As for the experimental part:
as §1
(§2) Recombinant capped transcripts of NMDA receptor subunit cDNAs contained in constructs NMDAR1A, NMDAR1-I63, NMDAR1-I63-Δ204, NMDAR1-Δ1087, NMDAR1-Δ363, and pCMV-26-NotI-24 were synthesized from linearized plasmids using the mCAP RNA Capping Kit (Cat. #200350, Stratagene, Inc., La Jolla, Calif.). For experiments in which NMDAR2A or NMDAR2B and NMDAR1 or NMDAR1-I63 transcripts were co-injected into Xenopus oocytes, the transcripts were synthesized from linearized constructs NMDAR1A, NMDAR1-I63, pCMV-hNMDAR2A-3(53), pCMV-26-NotI-24 and pBS-hNMDAR2B using mMessage mMachine (Ambion, catalog #1344, Austin, Tex.). The mass of each synthesized transcript was determined by UV absorbance and the integrity of each transcript was determined by electrophoresis through an agarose gel.
(§3) Xenopus oocytes were injected with 12.5-50 ng of one or more NMDA receptor subunit transcripts per oocyte. The preparation and injection of oocytes were carried out as described by Dascal [(1987) Crit. Rev. Biochem. 22:317-387]. […]
(In two-electrode clamp one electrode senses voltage and the other passes current.)

Test [3] concerns the target T2, human NMDAR1A + NMDAR2A + NMDAR2C (Homo sapiens, UniProt Q05586+Q12879+Q14957).
T2 construct: other: 50 ng each transcript; co-applied with 100 μM NMDA; mean±S.D. of
In words: cell-based. As for the experimental part: as §1, §2, §3

In test [4] the target is NMDA receptors. The test can be described thus: [3H]-CGP39653 binding to rat buffy coat homogenate. As to conditions: 150 μg rat buffy coat homogenate; 60 min at 4° C.; read-out: Kd (Scatchard analysis, single class of binding sites). As for the experimental part: 21:161]. […] The wash step is repeated once more. The final suspension is divided into aliquots, centrifuged.
The binding of [^3H]-CGP39653 to rat brain membranes is carried out as described by Sills et al. [(1991) Eur. J. Pharmacol. 192:19]. The buffy coat membrane pellet is resuspended in 50 volumes of 5 mM Tris-HCl containing 10 mM EDTA, pH 7.7, and incubated for 10 min. at 37° C. The supernatant is centrifuged at 48,000×g for 10 min. at 4° C. The wash step is repeated once and the pellet is resuspended in 10 ml of 5 mM Tris-HCl containing 10 mM EDTA, pH 7.7. […] Unbound radioactivity is removed with two washes of 3 ml each of ice-cold buffer.
Saturation analysis of [^3H]-CGP39653 binding was carried out by incubating 150 μg of rat buffy coat homogenate with increasing concentrations of [^3H]-CGP39653 for 60 min at 4° C.

T1 sequence (Q12879 23-1464, other chains not shown): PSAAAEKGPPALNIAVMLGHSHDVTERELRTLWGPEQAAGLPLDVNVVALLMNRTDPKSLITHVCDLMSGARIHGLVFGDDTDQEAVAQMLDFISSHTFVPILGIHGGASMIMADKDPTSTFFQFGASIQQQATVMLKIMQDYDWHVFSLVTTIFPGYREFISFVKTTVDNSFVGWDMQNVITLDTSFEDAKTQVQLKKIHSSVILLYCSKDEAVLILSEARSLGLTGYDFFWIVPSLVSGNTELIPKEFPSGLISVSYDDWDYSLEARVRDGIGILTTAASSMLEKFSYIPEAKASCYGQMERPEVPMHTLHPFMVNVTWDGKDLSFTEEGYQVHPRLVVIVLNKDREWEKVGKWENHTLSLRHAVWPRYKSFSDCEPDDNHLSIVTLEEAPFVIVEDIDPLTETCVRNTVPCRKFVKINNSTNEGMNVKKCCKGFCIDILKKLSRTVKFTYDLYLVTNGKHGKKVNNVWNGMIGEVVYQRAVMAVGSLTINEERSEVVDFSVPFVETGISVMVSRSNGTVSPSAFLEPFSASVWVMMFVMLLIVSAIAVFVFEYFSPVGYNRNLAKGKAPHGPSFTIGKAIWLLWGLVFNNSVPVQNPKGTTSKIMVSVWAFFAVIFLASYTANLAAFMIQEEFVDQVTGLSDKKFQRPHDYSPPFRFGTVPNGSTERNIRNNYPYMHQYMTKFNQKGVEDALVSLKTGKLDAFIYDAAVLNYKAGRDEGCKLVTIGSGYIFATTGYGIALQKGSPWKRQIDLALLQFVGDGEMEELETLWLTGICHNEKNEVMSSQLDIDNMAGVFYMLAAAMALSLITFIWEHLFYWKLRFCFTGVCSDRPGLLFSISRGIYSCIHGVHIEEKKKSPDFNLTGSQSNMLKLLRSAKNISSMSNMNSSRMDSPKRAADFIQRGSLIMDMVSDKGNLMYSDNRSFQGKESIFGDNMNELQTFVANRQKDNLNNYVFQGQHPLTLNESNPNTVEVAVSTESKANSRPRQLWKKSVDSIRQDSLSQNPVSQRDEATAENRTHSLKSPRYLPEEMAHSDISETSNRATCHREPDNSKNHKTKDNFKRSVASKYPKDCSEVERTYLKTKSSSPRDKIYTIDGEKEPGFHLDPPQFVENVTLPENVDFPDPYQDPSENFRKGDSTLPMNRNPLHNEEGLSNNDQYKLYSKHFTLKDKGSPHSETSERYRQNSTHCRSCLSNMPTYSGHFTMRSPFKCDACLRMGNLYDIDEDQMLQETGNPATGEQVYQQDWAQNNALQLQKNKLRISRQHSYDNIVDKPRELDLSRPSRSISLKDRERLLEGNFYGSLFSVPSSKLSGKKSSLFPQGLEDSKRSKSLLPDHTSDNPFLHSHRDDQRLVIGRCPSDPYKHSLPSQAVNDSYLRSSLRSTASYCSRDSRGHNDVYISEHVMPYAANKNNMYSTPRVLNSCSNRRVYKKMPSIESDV

Consider `C[C@]12N[C@H](Cc3ccccc31)c1ccccc12` [MK801], for which, in test [1], the “Block of NMDA agonist-induced currents, in general” value is listed as “blocked”. For orientation: EC50 means the concentration giving half of the maximal effect. As for `NCC(=O)O` [glycine], the EC50 came to 1.9 ± 0.26 µM in test [2] and 0.87 ± 0.24 µM in test [3]. With `[Cl-].[Cl-].[Mg+2]` [MgCl2], in test [1], the “Block of NMDA agonist-induced currents, in general” value is recorded as “blocked”. In general, Kd refers to the equilibrium constant for the complex coming apart. Consider `CCCC(=CC(N)C(=O)O)CP(=O)(O)O` (centres unmarked) [[^3H]-CGP39653], for which the Kd in test [4] turned out to be 0.0123 ± 0.00012 µM.
